Data as given in ChEMBL document CHEMBL1201862, “PubChem BioAssay data set” (2004).
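A five-concentration, 48-hour dose response in 96-well plates underlies each endpoint, interpolated linearly between surrounding concentrations. The concentration for 50% growth inhibition is given as GI50.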 Activity calls are given as the source filed them. Rule as the data show it: active = GI50 up to about 1.1 µM and inactive = higher.

Columns and labels:
Assay in all cases: inhibition of tumour cell growth, NCI panel, 48 h
786-0 = tested on: 786-0
A498 = tested on: A498
A549 = tested on: A549
ACHN = tested on: ACHN
CAKI-1 = tested on: CAKI-1
COLO 205 = tested on: COLO 205
DLD-1 = tested on: DLD-1
DMS-114 = tested on: DMS-114
DMS-273 = tested on: DMS-273
EKVX = tested on: EKVX
HCC 2998 = tested on: HCC 2998
HCT-116 = tested on: HCT-116
HCT-15 = tested on: HCT-15
HL-60 = tested on: HL-60
HOP-18 = tested on: HOP-18
HOP-62 = tested on: HOP-62
HOP-92 = tested on: HOP-92
HT-29 = tested on: HT-29
IGROV-1 = tested on: IGROV-1
K562 = tested on: K562
KM-20L2 = tested on: KM-20L2
KM12 = tested on: KM12
LOX IMVI = tested on: LOX IMVI
LXFL 529 = tested on: LXFL 529
M14 = tested on: M14
M19-MEL = tested on: M19-MEL
MOLT-4 = tested on: MOLT-4
Malme-3M = tested on: Malme-3M
NCI-H226 = tested on: NCI-H226
NCI-H23 = tested on: NCI-H23
NCI-H460 = tested on: NCI-H460
NCI-H522 = tested on: NCI-H522
OVCAR-3 = tested on: OVCAR-3
OVCAR-4 = tested on: OVCAR-4
OVCAR-5 = tested on: OVCAR-5
OVCAR-8 = tested on: OVCAR-8
RPMI-8226 = tested on: RPMI-8226
RXF 393 = tested on: RXF 393
RXF 631 = tested on: RXF 631
SF-268 = tested on: SF-268
SF-295 = tested on: SF-295
SF-539 = tested on: SF-539
SK-MEL-28 = tested on: SK-MEL-28
SK-MEL-2 = tested on: SK-MEL-2
SK-MEL-5 = tested on: SK-MEL-5
SK-OV-3 = tested on: SK-OV-3
SN12C = tested on: SN12C
SNB-19 = tested on: SNB-19
SNB-75 = tested on: SNB-75
SNB-78 = tested on: SNB-78
SR = tested on: SR
SW-620 = tested on: SW-620
TK-10 = tested on: TK-10
U-251 = tested on: U-251
UACC-257 = tested on: UACC-257
UACC-62 = tested on: UACC-62
UO-31 = tested on: UO-31
XF498 = tested on: XF498
CCRF-CEM = tested on: CCRF-CEM

In the case of `CC(C)OCN/C(N)=N\C#N`, the GI50 (786-0) was 82.4 µM (inactive), the GI50 (A498) was > 100 µM (inactive) and the GI50 (A549) was > 100 µM (inactive). For the same molecule, the GI50 (ACHN) was > 100 µM (inactive), the GI50 (CAKI-1) was > 100 µM (inactive) and the GI50 (COLO 205) was 29.1 µM (inactive). For the same molecule, the GI50 (DLD-1) was 59.7 µM (inactive), the GI50 (DMS-114) was > 100 µM (inactive) and the GI50 (DMS-273) was 49.2 µM (inactive). For the same molecule, the GI50 (EKVX) was > 100 µM (inactive), the GI50 (HCC 2998) was > 100 µM (inactive) and the GI50 (HCT-116) was > 100 µM (inactive). For the same molecule, the GI50 (HCT-15) was 17.5 µM, the GI50 (HL-60) was > 100 µM (inactive) and the GI50 (HOP-18) was > 100 µM (inactive). For the same molecule, the GI50 (HOP-62) was > 100 µM (inactive), the GI50 (HOP-92) was > 100 µM (inactive) and the GI50 (HT-29) was 43.8 µM (inactive). For the same molecule, the GI50 (IGROV-1) was > 100 µM (inactive), the GI50 (K562) was > 100 µM (inactive) and the GI50 (KM-20L2) was > 100 µM (inactive). The GI50 (KM12) was > 100 µM (inactive), the GI50 (LOX IMVI) was 20.5 µM (inactive) and the GI50 (LXFL 529) was > 100 µM (inactive). The GI50 (M14) was > 100 µM (inactive), the GI50 (M19-MEL) was > 100 µM (inactive) and the GI50 (MOLT-4) was > 100 µM (inactive). For the same molecule, the GI50 (Malme-3M) was > 100 µM (inactive), the GI50 (NCI-H226) was > 100 µM (inactive) and the GI50 (NCI-H23) was > 100 µM (inactive). For the same molecule, the GI50 (NCI-H460) was > 100 µM (inactive), the GI50 (NCI-H522) was > 100 µM (inactive) and the GI50 (OVCAR-3) was > 100 µM (inactive). The GI50 (OVCAR-4) was > 100 µM (inactive), the GI50 (OVCAR-5) was > 100 µM (inactive) and the GI50 (OVCAR-8) was > 100 µM (inactive). For the same molecule, the GI50 (RPMI-8226) was 24 µM (inactive), the GI50 (RXF 393) was 46.1 µM (inactive) and the GI50 (RXF 631) was > 100 µM (inactive). For the same molecule, the GI50 (SF-268) was > 100 µM (inactive), the GI50 (SF-295) was > 100 µM (inactive) and the GI50 (SF-539) was > 100 µM (inactive). For the same molecule, the GI50 (SK-MEL-28) was > 100 µM (inactive), the GI50 (SK-MEL-2) was > 100 µM (inactive) and the GI50 (SK-MEL-5) was > 100 µM (inactive). The GI50 (SK-OV-3) was > 100 µM (inactive), the GI50 (SN12C) was > 100 µM (inactive) and the GI50 (SNB-19) was > 100 µM (inactive). The GI50 (SNB-75) was > 100 µM (inactive), the GI50 (SNB-78) was > 100 µM (inactive) and the GI50 (SR) was 10.8 µM (inactive). The GI50 (SW-620) was 17 µM (inactive), the GI50 (TK-10) was > 100 µM (inactive) and the GI50 (U-251) was > 100 µM (inactive). For the same molecule, the GI50 (UACC-257) was > 100 µM (inactive), the GI50 (UACC-62) was > 100 µM (inactive) and the GI50 (UO-31) was > 100 µM (inactive). The GI50 (XF498) was > 100 µM (inactive).
With `COC(=O)/C=C/c1c(CC=C(C)C)ncn1C` the GI50 (786-0) was 38.5 µM (inactive), the GI50 (A498) was > 84.1 µM (inactive) and the GI50 (A549) was 70.3 µM (inactive). The GI50 (ACHN) was > 76.7 µM (inactive), the GI50 (CAKI-1) was > 68.1 µM (inactive) and the GI50 (CCRF-CEM) was > 41.3 µM (inactive). The GI50 (COLO 205) was 20.9 µM (inactive), the GI50 (DLD-1) was 29.8 µM (inactive) and the GI50 (DMS-114) was 5.38 µM (inactive). For the same molecule, the GI50 (DMS-273) was 8.38 µM (inactive), the GI50 (EKVX) was > 57.1 µM (inactive) and the GI50 (HCC 2998) was 54.6 µM (inactive). For the same molecule, the GI50 (HCT-116) was 24.3 µM (inactive), the GI50 (HCT-15) was 7.85 µM and the GI50 (HL-60) was 4.21 µM (inactive). The GI50 (HOP-18) was > 100 µM (inactive), the GI50 (HOP-62) was 42 µM (inactive) and the GI50 (HOP-92) was 78.7 µM (inactive). For the same molecule, the GI50 (HT-29) was 14.4 µM (inactive), the GI50 (IGROV-1) was > 100 µM (inactive) and the GI50 (K562) was 4.63 µM (inactive). For the same molecule, the GI50 (KM-20L2) was 16.7 µM (inactive), the GI50 (KM12) was 11 µM (inactive) and the GI50 (LOX IMVI) was 35.7 µM (inactive). The GI50 (LXFL 529) was 55.1 µM (inactive), the GI50 (M14) was 16.4 µM (inactive) and the GI50 (M19-MEL) was 18.8 µM (inactive). The GI50 (MOLT-4) was 5.31 µM (inactive), the GI50 (Malme-3M) was > 100 µM (inactive) and the GI50 (NCI-H226) was > 38.5 µM (inactive). For the same molecule, the GI50 (NCI-H23) was 37.7 µM (inactive), the GI50 (NCI-H460) was 40.2 µM (inactive) and the GI50 (NCI-H522) was 25.3 µM (inactive). The GI50 (OVCAR-3) was 16.9 µM (inactive), the GI50 (OVCAR-4) was 84.9 µM (inactive) and the GI50 (OVCAR-5) was > 100 µM (inactive). The GI50 (OVCAR-8) was 40.2 µM (inactive), the GI50 (RPMI-8226) was 20.6 µM (inactive) and the GI50 (RXF 393) was 22.5 µM (inactive). For the same molecule, the GI50 (RXF 631) was 59 µM (inactive), the GI50 (SF-268) was > 66.7 µM (inactive) and the GI50 (SF-295) was 24.4 µM (inactive). The GI50 (SF-539) was 17.8 µM (inactive), the GI50 (SK-MEL-28) was > 49.5 µM (inactive) and the GI50 (SK-MEL-2) was 19.6 µM (inactive). For the same molecule, the GI50 (SK-MEL-5) was 22.1 µM (inactive), the GI50 (SK-OV-3) was 47.9 µM (inactive) and the GI50 (SN12C) was 88.5 µM (inactive). The GI50 (SNB-19) was 26.1 µM (inactive), the GI50 (SNB-75) was 11.1 µM (inactive) and the GI50 (SNB-78) was 53.2 µM (inactive). The GI50 (SR) was 4.29 µM (inactive), the GI50 (SW-620) was 6.79 µM (inactive) and the GI50 (TK-10) was 55.7 µM (inactive). For the same molecule, the GI50 (U-251) was 19.1 µM (inactive), the GI50 (UACC-257) was 61.7 µM (inactive) and the GI50 (UACC-62) was 16.6 µM (inactive). For the same molecule, the GI50 (UO-31) was 28.2 µM (inactive) and the GI50 (XF498) was 41.3 µM (inactive).
In the case of `COc1ccc(C2=NC(CO)[C@H](c3ccccc3)O2)cc1OC` (stereo partly specified), the GI50 (786-0) was > 100 µM (inactive), the GI50 (A498) was > 100 µM (inactive) and the GI50 (A549) was > 100 µM (inactive). The GI50 (ACHN) was > 100 µM (inactive), the GI50 (CAKI-1) was > 100 µM (inactive) and the GI50 (CCRF-CEM) was > 100 µM (inactive). The GI50 (COLO 205) was > 100 µM (inactive), the GI50 (DLD-1) was 78 µM (inactive) and the GI50 (DMS-114) was > 100 µM (inactive). The GI50 (DMS-273) was > 100 µM (inactive), the GI50 (HCC 2998) was > 100 µM (inactive) and the GI50 (HCT-116) was > 100 µM (inactive). The GI50 (HCT-15) was over 100 µM, the GI50 (HL-60) was > 100 µM (inactive) and the GI50 (HOP-62) was > 100 µM (inactive). The GI50 (HOP-92) was > 100 µM (inactive), the GI50 (HT-29) was > 100 µM (inactive) and the GI50 (IGROV-1) was > 100 µM (inactive). For the same molecule, the GI50 (K562) was > 100 µM (inactive), the GI50 (KM-20L2) was > 100 µM (inactive) and the GI50 (KM12) was > 100 µM (inactive). The GI50 (LOX IMVI) was > 100 µM (inactive), the GI50 (LXFL 529) was > 100 µM (inactive) and the GI50 (M14) was > 100 µM (inactive). For the same molecule, the GI50 (M19-MEL) was > 100 µM (inactive), the GI50 (MOLT-4) was > 100 µM (inactive) and the GI50 (Malme-3M) was > 100 µM (inactive). The GI50 (NCI-H226) was > 100 µM (inactive), the GI50 (NCI-H460) was > 100 µM (inactive) and the GI50 (NCI-H522) was > 100 µM (inactive). The GI50 (OVCAR-3) was > 100 µM (inactive), the GI50 (OVCAR-4) was > 100 µM (inactive) and the GI50 (OVCAR-5) was > 100 µM (inactive). The GI50 (OVCAR-8) was > 100 µM (inactive), the GI50 (RXF 631) was > 100 µM (inactive) and the GI50 (SF-268) was > 100 µM (inactive). The GI50 (SF-295) was > 100 µM (inactive), the GI50 (SF-539) was > 100 µM (inactive) and the GI50 (SK-MEL-2) was > 100 µM (inactive). The GI50 (SK-MEL-5) was > 100 µM (inactive), the GI50 (SK-OV-3) was 96.4 µM (inactive) and the GI50 (SN12C) was > 100 µM (inactive). For the same molecule, the GI50 (SNB-19) was > 100 µM (inactive), the GI50 (SNB-75) was > 100 µM (inactive) and the GI50 (SW-620) was > 100 µM (inactive). For the same molecule, the GI50 (UACC-257) was > 100 µM (inactive), the GI50 (UACC-62) was 53.6 µM (inactive) and the GI50 (UO-31) was > 100 µM (inactive). The GI50 (XF498) was > 100 µM (inactive).
